One experiment deals with glucose resorption. Put plainly: Resorption-inhibiting activity: oral glucose loading in fasting guinea pigs. The format is in vivo, guinea pig. The conditions noted are these: Cavia porcellus, ip, 1 g glucose p.o., AUC difference vs control; for inhibition in vivo at 20 mg/kg: dose 20 mg/kg i.p.; for inhibition in vivo at 40 mg/kg: dose 40 mg/kg i.p.; for inhibition in vivo at 25 mg/kg: dose 25 mg/kg i.p. The procedure:
2. Test procedure for determination of resorption-inhibiting activity
To determine the effect on glucose resorption, oral glucose loading was effected. To this end, the substance to be tested was administered intraperitoneally as potassium salt, as described, to a group of ten fasting guinea pigs. At the same time, 1 g glucose was orally administered to the animals as a 20% solution by means of an esophageal bougie.
After a preliminary value had been established, blood was taken from the animals at close intervals (20 min. to 200 min.) for determination of the glucose concentrations, as described.
A parallel control group was also given 1 g glucose p. o., and intraperitoneally a corresponding amount of 0.9% NaCl solution.
The blood-glucose concentration was determined in the hemolyzate by the hexokinase method, as described.
With regard to glucose resorption, the area under the concentration/time curve, calculated by means of the empirical trapeze formula, served as quantity to be measured. The difference in the area between the control and test groups, expressed in percent, was used as a measure for the inhibition of glucose resorption.

For experiment [1], the system named is blood-glucose concentration. In words: Threshold dose of blood-glucose-lowering activity in fasting guinea pigs (i.p.). In kind it is in vivo, guinea pig. The conditions noted are these: Cavia porcellus, ip. The procedure:
1. Test procedure for determination of threshold dose
Fasting guinea pigs were used as experimental models to determine the threshold dose of the blood-glucose-lowering activity of the substances to be investigated. Food was withheld from the animals used in the investigations for 16 hours prior to the start of the tests. The animals remained without food for the entire testing period but had free access to drinking water.
The substances were administered intraperitoneally as a solution of the potassium salt at pH 7.4.
A parallel control group was given an 0.9% NaCl solution.
The drawing of blood for determination of the glucose concentrations was effected immediately prior to administration of the substances and at one-hour intervals up to the fourth hour after the administration of the substances. To this end, an ear vein was carefully punctured with a No. 18 cannula, and the drops of blood issuing were picked up with a 10 μl capillary.
The blood-glucose concentration was determined in the hemolyzate by the specific hexokinase method. To this end, the 10 μl blood sample was pipetted into a stabilizer solution containing digitonin as hemolysis accelerator and maleinimide as […]. Following this, an aliquot was taken from the hemolyzate so obtained and determined by the hexokinase method on an LKB 8600 (made by LKB, Bromma, Sweden).
The dose which with the specified number of test animals per dose group (N=4) was just large enough to produce a significant lowering of fasting glycemia (p>0.05) was adopted as threshold dose.

The mark [2] stands for this setting: potassium salt pH 7.4, N=4 per dose group, smallest dose significantly lowering fasting glycemia.
The mark [3] stands for this setting: potassium salt pH 7.4, N=4, remark printed: weak.

This passage reports inhibition in vivo and minimal effective dose results from patent US4425360A, “Pharmacologically active novel O-substituted pyruvic acid oximes” (Boehringer Mannheim GmbH, priority 1980, dated 1984).

The term inhibition in vivo denotes the relative decrease from the control value, in per cent. Low values mean a weak effect, high ones a strong effect. One may read the minimal effective dose as the lowest level tested that produced the effect sought. In the experiment with glucose resorption, `CC(=NOCCCc1ccccc1)C(=O)[O-].[Na+]` [Example 1b, sodium 2-(3-phenylpropyloxyimino)-propionate] returned an inhibition in vivo at 20 mg/kg of 39%. Also, in experiment [1] (setting [2]), the minimal effective dose is 25 to 50 mg/kg.

`CC(=NOCCOc1ccccc1)C(=O)[O-].[Na+]` [Example 1c, sodium 2-(2-phenoxyethyloxyimino)-propionate] returned an inhibition in vivo at 40 mg/kg in the experiment on glucose resorption of 25%. Moreover, the minimal effective dose in experiment [1] (setting [3]) was 50 mg/kg.

`CC(=NOCCc1ccccc1)C(=O)O` [Example 2a, 2-(2-phenylethyloxyimino)-propionic acid] had an inhibition in vivo at 40 mg/kg in the experiment on glucose resorption of 33%. In experiment [1] (setting [2]), the minimal effective dose stood at 75 mg/kg.

In the experiment with glucose resorption, `CC(=NOCC#Cc1ccccc1)C(=O)O` [Example 2d, 2-(3-phenyl-2-propynyloxyimino)-propionic acid] came in with an inhibition in vivo at 40 mg/kg of 65%. Also, in experiment [1] (potassium salt pH 7.4, N=4, remark printed: wk. indiv. animals), the minimal effective dose came to 25 mg/kg.

Turning to `CC(=CCON=C(C)C(=O)O)c1ccccc1` [Example 3, 2-(γ-Methylcinnamyloxyimino)-propionic acid], the inhibition in vivo at 30 mg/kg in the experiment with glucose resorption (dose 30 mg/kg i.p.) is 0%. Further, the minimal effective dose in experiment [1] (setting [2]) stood at 50 mg/kg.

`CC(=NOCC=Cc1ccccc1)C(=O)O` [Example 3a, 2-cinnamyloxyiminopropionic acid]: the inhibition in vivo at 10 mg/kg with glucose resorption (dose 10 mg/kg i.p.) turned out to be 33%. The minimal effective dose in experiment [1] (setting [2]) amounted to 25 mg/kg.

Compound `CC(=Cc1ccccc1)CON=C(C)C(=O)O` [Example 3b, 2-(β-methylcinnamyloxyimino)-propionic acid] registered an inhibition in vivo at 40 mg/kg with glucose resorption of 40%. The minimal effective dose in experiment [1] (setting [2]) was found to be 50 mg/kg.

For `CC(=NOCC=Cc1cccc(Cl)c1)C(=O)O` [Example 4, 2-(3-Chlorocinnamyloxyimino)-propionic acid], in the experiment with glucose resorption, the inhibition in vivo at 20 mg/kg was 55%. Further, the minimal effective dose in experiment [1] (setting [2]) came to 25 mg/kg.

The compound `CC(=NOCC=Cc1ccccc1Cl)C(=O)O` [Example 4a, 2-(2-chlorocinnamyloxyimino)-propionic acid] displayed an inhibition in vivo at 40 mg/kg in the experiment on glucose resorption of 41%. The minimal effective dose in experiment [1] (setting [3]) is 50 mg/kg.

`CC(=NOCC=Cc1ccc(Cl)cc1)C(=O)O` [Example 4b, 2-(4-chlorocinnamyloxyimino)-propionic acid] displayed an inhibition in vivo at 20 mg/kg in the experiment with glucose resorption of 10%. In addition, the minimal effective dose in experiment [1] (potassium salt pH 7.4, N=4, remark printed: flat D-W curve) lay in the range of 25 to 50 mg/kg.

On to `C=CCON=C(C)C(=O)O` [Example 4c, 2-(allyloxyimino)-propionic acid], for which testing at 40 mg/kg in the experiment with glucose resorption gave an inhibition in vivo of 37%. Further, in experiment [1] (setting [2]), the minimal effective dose is more than 50 mg/kg.

With `CC(=NOCC=Cc1ccc(F)cc1)C(=O)O` [Example 5, 2-(4-Fluorocinnamyloxyimino)-propionic acid], testing at 40 mg/kg with glucose resorption gave an inhibition in vivo of 3%. For the same compound, the minimal effective dose in experiment [1] (setting [2]) was 50 mg/kg.

Take `COc1cccc(C=CCON=C(C)C(=O)O)c1` [Example 5D, 2-(3-methoxycinnamyloxyimino)-propionic acid]: at 25 mg/kg the inhibition in vivo in the experiment with glucose resorption was 36%. The minimal effective dose in experiment [1] (setting [2]) came to 25 mg/kg.

`CC(=NOCC=Cc1cccc(C(F)(F)F)c1)C(=O)O` [Example 5a, 2-(3-trifluoromethylcinnamyloxyimino)-propionic acid]: the inhibition in vivo at 40 mg/kg in the experiment with glucose resorption is 34%. Besides, the minimal effective dose in experiment [1] (setting [2]) turned out to be 50 mg/kg.

The compound `CC(=NOCC=Cc1cc(Cl)ccc1C)C(=O)O` [Example 5f, 2-(5-chloro-2-methylcinnamyloxyimino)-propionic acid] gave an inhibition in vivo at 40 mg/kg with glucose resorption of 33%. In experiment [1] (setting [2]), the minimal effective dose was 50 mg/kg.

On to `CC(=NOCC=Cc1ccccc1)C(=O)N1CCN(C)CC1` [Example 8, 4-[2-(Cinnamyloxyimino)-propionyl]-1-methylpiperazine], for which the inhibition in vivo at 40 mg/kg in the experiment on glucose resorption amounted to 44%. In addition, in experiment [1] (setting [2]), the minimal effective dose is more than 50 mg/kg.

In the experiment with glucose resorption, `O=C(O)C(CF)=NOCC=Cc1ccccc1` [Example 9, 2-(Cinnamyloxyimino)-3-fluoropropionic acid] gave an inhibition in vivo at 20 mg/kg of 26%. Besides, in experiment [1] (setting [2]), the minimal effective dose is 25 mg/kg.

`O=C(O)C=NOCC=Cc1ccccc1` [Example 10, Cinnamyloxyiminoacetic acid] had an inhibition in vivo at 25 mg/kg in the experiment with glucose resorption of 69%. For the same compound, the minimal effective dose in experiment [1] (setting [2]) was more than 50 mg/kg.

Consider `CCC(=NOCC=Cc1ccccc1)C(=O)O` [Example 10a, 2-cinnamyloxyiminobutyric acid], for which, in the experiment on glucose resorption, 20 mg/kg produced 0% inhibition in vivo. In experiment [1] (setting [2]), the minimal effective dose came out at 25 mg/kg.
